Measured values as given in patent US9452225B2, “GLP-1 prodrugs” (Novo Nordisk A/S, priority 2012, dated 2016).
Numbered stars: 1 amine (or outer) side, 2 acyl side, 3 side chain; on linkers, the order of the positions; unused ones are H or OH. Square brackets hold non-standard residues; d marks the D form. Side chains are listed from the residue outwards. Peptide text beside a SMILES is read from it. * marks the point of attachment. Lactoyl(3-(imidazol-4-yl)) = O=C([C@@H](O)Cc1c[nH]cn1)*; C18 diacid = O=C(O)CCCCCCCCCCCCCCCCC(=O)*; γGlu = O=C(O)[C@H](CCC(=O)[*:2])N[*:1]; AEEA = NCCOCCOCC(=O)O; Aib = CC(C)(N)C(=O)O

How the values were obtained:
human GLP-1 receptor [1] = biological target: T1, human GLP-1 receptor (Homo sapiens, UniProt P43220); experiment: In vitro potency, CRE luciferase reporter gene assay in whole BHK cells; format: cell-based; conditions: 0% HSA
T1 construct: expressed in transfected cells; host or cells: BHK cells, clone FCW467-12A (parent line BHKTS13), membranes
Protocol: The purpose of this example is to test the activity, or potency, of, for example, the GLP-1 parent drugs of the prodrugs of the invention. The in vitro potency is the measure of human GLP-1 receptor activation in a whole cell assay. This method is an alternative to the method of Example 8.
In vitro potency was determined by measuring the response of the human GLP-1 receptor in a reporter gene assay. The assay was performed in a stably transfected BHK cell line that expresses the human GLP-1 receptor and contains the DNA for the cAMP response element (CRE) coupled to a promoter and the gene for firefly luciferase (CRE luciferase). When the human GLP-1 receptor is activated it results in the production of cAMP, which in turn results in the luciferase protein being expressed. When assay incubation is completed the luciferase substrate (luciferin) is added and the enzyme converts luciferin to oxyluciferin to produce bioluminescence. The luminescence is measured as the readout for the assay.
In order to test the binding of the derivatives to albumin, the assay may if desired be performed in the absence of serum albumin as well as in the presence of a considerably higher concentration of serum albumin (1.0% final assay concentration). […]
3) The cells were counted and adjusted to 5×10^3 cells/50 μl (1×10^5 cells/ml) in Assay Medium. […]

human GLP-1 receptor [2] = biological target: T1, human GLP-1 receptor; experiment: GLP-1 receptor binding, SPA displacement of 125I-GLP-1, low albumin; conditions: low albumin (0.005% HSA)
Protocol: The purpose of this experiment is to test the receptor binding activity of the GLP-1 parent drugs of the prodrugs of the invention. The receptor binding is a measure of affinity of a parent drug for the human GLP-1 receptor. The parent GLP-1 drugs of Examples B2.1, B2.2, B2.3, B2.4, and B2.5 were tested as described below.
The receptor binding of the GLP-1 drugs to the human GLP-1 receptor was measured in a competitive binding assay. In this type of assay a labelled ligand (in this case ^125I-GLP-1) is bound to the receptor. Each drug is added in a series of concentrations to isolated membranes containing the human GLP-1 receptor and displacement of the labelled ligand is monitored. The receptor binding is reported as the concentration at which half of the labelled ligand is displaced from the receptor, the IC50 value. […]
The cells were grown at 5% CO2 in DMEM, 10% fetal calf serum, 1% Pen/Strep (Penicillin/Streptomycin) and 1.0 mg/ml of the selection marker G418. […] The resulting pellet was re-suspended in buffer 2 and the protein concentration was determined. […]

T1 sequence (P43220 24-463): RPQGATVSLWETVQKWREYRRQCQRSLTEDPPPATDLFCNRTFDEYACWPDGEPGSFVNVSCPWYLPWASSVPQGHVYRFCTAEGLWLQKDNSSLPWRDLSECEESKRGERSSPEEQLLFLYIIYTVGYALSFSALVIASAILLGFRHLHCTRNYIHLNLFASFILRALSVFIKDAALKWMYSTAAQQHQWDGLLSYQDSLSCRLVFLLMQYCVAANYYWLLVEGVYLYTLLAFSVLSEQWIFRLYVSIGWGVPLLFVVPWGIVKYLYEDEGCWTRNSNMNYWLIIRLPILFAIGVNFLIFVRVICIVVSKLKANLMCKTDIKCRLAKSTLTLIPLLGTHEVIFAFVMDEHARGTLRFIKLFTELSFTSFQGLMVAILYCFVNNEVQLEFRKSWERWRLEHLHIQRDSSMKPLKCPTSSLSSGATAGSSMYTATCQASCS

Structure (SMILES) | EC50 (human GLP-1 receptor [1]) | IC50 (human GLP-1 receptor [2])
CC[C@H](C)[C@H](NC(=O)[C@H](Cc1ccccc1)NC(=O)[C@H](CCCCNC(=O)COCCOCCNC(=O)COCCOCCNC(=O)CC[C@H](NC(=O)CCCCCCCCCCCCCCCCC(=O)O)C(=O)O)NC(=O)[C@H](CCCNC(=N)N)NC(=O)[C@H](C)NC(=O)[C@H](C)NC(=O)[C@H](CCC(N)=O)NC(=O)[C@H](CCC(=O)O)NC(=O)[C@H](CCC(=O)O)NC(=O)[C@H](CC(C)C)NC(=O)[C@H](Cc1ccc(O)cc1)NC(=O)[C@H](CO)NC(=O)[C@H](CO)NC(=O)[C@@H](NC(=O)[C@H](CC(=O)O)NC(=O)[C@H](CO)NC(=O)[C@@H](NC(=O)[C@H](Cc1ccccc1)NC(=O)[C@@H](NC(=O)CNC(=O)[C@H](CCC(=O)O)NC(=O)C(C)(C)NC(=O)[C@@H](O)Cc1c[nH]cn1)[C@@H](C)O)[C@@H](C)O)C(C)C)C(=O)N[C@@H](C)C(=O)N[C@@H](Cc1c[nH]c2ccccc12)C(=O)N[C@@H](CC(C)C)C(=O)N[C@H](C(=O)N[C@@H](CCCNC(=N)N)C(=O)NCC(=O)N[C@@H](CCCNC(=N)N)C(=O)NCC(=O)O)C(C)C [Example B2.4, N^ε27 [(S)-(22,40-dicarboxy-10,19,24-trioxo-3,6,12,15-tetraoxa-9,18,23-triazatetracontan-1-oyl)]-N^α8-{3-[(2S)-2-hydroxy-3-(1H-imidazol-4-yl)propanoyl}-Aib^8,Glu^22,Arg^26,Lys^27,Arg^34]-GLP-1-(8-37)-peptide] ({Lactoyl(3-(imidazol-4-yl))}-[Aib]EGTFTSDVSSYLEEQAARK([AEEA-AEEA-γGlu-C18 diacid])FIAWLVRGRG-OH; C-terminus assumed) | 4 pM | 0.09 nM
CC[C@H](C)[C@H](NC(=O)[C@H](Cc1ccccc1)NC(=O)[C@H](CCC(=O)O)NC(=O)[C@H](CCCCNC(=O)COCCOCCNC(=O)COCCOCCNC(=O)CC[C@H](NC(=O)CCCCCCCCCCCCCCCCC(=O)O)C(=O)O)NC(=O)[C@H](C)NC(=O)[C@H](C)NC(=O)[C@H](CCCNC(=N)N)NC(=O)CNC(=O)[C@H](CCC(=O)O)NC(=O)[C@H](CC(C)C)NC(=O)[C@H](Cc1ccc(O)cc1)NC(=O)[C@H](CO)NC(=O)[C@H](CO)NC(=O)[C@@H](NC(=O)[C@H](CC(=O)O)NC(=O)[C@H](CO)NC(=O)[C@@H](NC(=O)[C@H](Cc1ccccc1)NC(=O)[C@@H](NC(=O)CNC(=O)[C@H](CCC(=O)O)NC(=O)C(C)(C)NC(=O)[C@@H](O)Cc1c[nH]cn1)[C@@H](C)O)[C@@H](C)O)C(C)C)C(=O)N[C@@H](C)C(=O)N[C@@H](Cc1c[nH]c2ccccc12)C(=O)N[C@@H](CC(C)C)C(=O)N[C@H](C(=O)N[C@@H](CCCNC(=N)N)C(=O)NCC(=O)N[C@@H](CCCNC(=N)N)C(=O)NCC(=O)O)C(C)C [Example B2.5, N^ε26 [(S)-(22,40-dicarboxy-10,19,24-trioxo-3,6,12,15-tetraoxa-9,18,23-triazatetracontan-1-oyl)]-N^α8-{3-[(2S)-2-hydroxy-3-(1H-imidazol-4-yl)propanoyl}-Aib^8,Arg^23,Arg^34]-GLP-1-(8-37)-peptide] ({Lactoyl(3-(imidazol-4-yl))}-[Aib]EGTFTSDVSSYLEGRAAK([AEEA-AEEA-γGlu-C18 diacid])EFIAWLVRGRG-OH; C-terminus assumed) | 31 pM | 0.22 nM
